In patent US11109819B2, “System and method for quantitatively mapping mitochondrial membrane potential” (The General Hospital Corporation, priority 2016, dated 2021):
“Also recorded” adds a separate entry of the source.

Legend:
[1] = mouse tissues; FIGS. 1-5 of US 2013/0064768 A1; cited from earlier work
[2] = in vivo; cited from earlier work
[3] = Dynamic PET/CT with Logan plot, parametric map of 18F-TPP+ volume of distribution Vd; format: in vivo, domestic swine; conditions: pig with experimental tissue injury in LAD territory, FIG. 8
Method: The study cohort consisted of n=9 domestic swine which were divided into two groups, control (n=6) and tissue injury (scar) (n=3). […] Pigs were housed and maintained under the supervision of the Massachusetts General Hospital Animal Care and Use Committee. Studies were conducted serially, one pig at a time, from August 2014 till October 2015. The weight of the pigs at scan averaged 53.1 kg with a range from 30-92 kg.
Pigs were fasted 12 hours prior to induction of anesthesia, sedated with 4.4 mg/kg Telazol, placed on 5% masked isoflurane, intubated, maintained with 1.5% isoflurane and mechanically ventilated. Vital signs were monitored continuously. Vascular access was obtained via the femoral veins for injection of PET radiotracer and iodinated contrast media. […]
PET Scans were performed on a Siemens Biograph PET/CT scanner: A planar x-ray topogram was performed to define the field of view (FOY) with the heart centered for computed tomography (CT), CT-angiogram (CTA) and PET acquisitions. […] Each frame was reconstructed using a filtered back projection algorithm to yield a radioactivity concentration map in units of Bq/cc with 83 slices and a voxel size of 2.14×2.14×3 mm^3.
Dynamic PET data were analyzed using a Logan plot (Logan, Fowler et al. 1990) to produce parametric images of the ^18F-TPP^+ volume of distribution, Vd and reoriented into the short axis projection. […]

[4] = Comparison of myocardial kinetics of TPP+ and Flurpiridaz (FIG. 4); format: in vivo
Excerpt: FIG. 4 is a graphical illustration depicting comparison of myocardial kinetics of TPP^| and Flurpiridaz. The black line (the top line) depicts Flurpiridaz kinetics; whereas, the red line (the bottom line) depicts TPP^+ kinetics. Concentrations are normalized to remove the effect of injected radioactivity dose.
To provide a direct observation Applicants compared the kinetics of ^18F-TPP^+ to those of ^18F-Flurppiridaz, a tracer with high first pass capillary extraction (E>0.9). […] Thus it is unlikely that TPP^+ can provide useful myocardial flow measurements, per se.

[5] = Time course of tracer concentration to steady state (FIG. 4, FIG. 11); format: in vivo, domestic swine
Excerpt: Applicants use a few administration methods including a constant infusion, a pulse or bolus injection or a combination of a constant infusion a pulse or bolus injection. To date, most of Applicants work has used the kinetic approach because it carries the complete information available from our measurements. By analyzing the kinetic data (concentration vs time), Applicants can infer the steady state based on the ratio of the tissue concentration to the plasma concentration. […] The addition of the pulse or bolus injection to the constant infusion can shorten the time needed to impose the steady state for TPP^+. In this case both the plasma and myocardial concentrations become constant after about 90 minutes. The two color pictures are from studies in the same pig but measured on different days, one using constant infusion and the other the kinetic protocol. Note the excellent agreement between the two methods.

[6] = Arterial and venous blood sampling of 18F-TPP+, whole blood to plasma concentration ratio; format: in vivo, domestic swine
Method: Pigs were fasted 12 hours prior to induction of anesthesia, sedated with 4.4 mg/kg Telazol, placed on 5% masked isoflurane, intubated, maintained with 1.5% isoflurane and mechanically ventilated. Vital signs were monitored continuously. Vascular access was obtained via the femoral veins for injection of PET radiotracer and iodinated contrast media. An arterio-venous shunt was placed in the left femoral artery for blood withdrawal.
Arterial blood sampling of ^18F-TPP^+ were drawn every 10 seconds for the first 3 minutes, then at 1 minute intervals for 5 minutes, and at increasing intervals until 120 minutes post injection. In two studies, venous several blood samples were also drawn at 5, 10, 15, 30, 60 and 90 minutes for comparison with arterial samples. All blood samples were centrifuged to determine plasma and red cell concentration histories. Concentration ratios of whole blood to plasma were computed.

CCCCCCCCCC[P+](c1ccccc1)(c1ccccc1)c1ccccc1 [DecylTPP]
reaching a steady state within an hour [1]: none of MitoQ, DecylTPP, FluroUndecylTPP and TPMP reach a steady state

COC1=C(OC)C(=O)C(CCCCCCCCCC[P+](c2ccccc2)(c2ccccc2)c2ccccc2)=C(C)C1=O [MitoQ]
reaching a steady state within an hour [1]: none of MitoQ, DecylTPP, FluroUndecylTPP and TPMP reach a steady state

C[P+](c1ccccc1)(c1ccccc1)c1ccccc1 [TPMP, triphenylmethylphosphonium^+]
reaching a steady state within an hour [1]: none of MitoQ, DecylTPP, FluroUndecylTPP and TPMP reach a steady state

CC(C)(C)n1ncc(OCc2ccc(COCCF)cc2)c(Cl)c1=O [^18F-Flurppiridaz]
first pass capillary extraction E [2]: > 0.9

[18F]c1ccc([P+](c2ccccc2)(c2ccccc2)c2ccccc2)cc1 [^18F-TPP^+, ^18F-tetraphenylphosphonium]
volume of distribution Vd ([3]; areas in other vascular territories): 25 mL/cc
volume of distribution Vd ([3]; core of the injury): 2 mL/cc
accumulation in the myocardium [4]: accumulates slowly in the myocardium
extraction compared with 18F-Flurppiridaz ([4]; myocardium): much lower
kinetics compared with 18F-Flurppiridaz ([4]; myocardium): much slower kinetics
time remaining in the steady state ([5]; in a subject): at least 2 hours
time to reach a steady state in subject / tissue ([5]; in vivo tissue, FIG. 4 and FIG. 11): within minutes; also recorded: within two hours
time after which plasma and myocardial concentrations become constant ([5]; intravenous pulse of TPP+ followed by constant infusion, FIG. 11): about 90 minutes
concentration ratio for whole blood versus plasma ([6]; constant value after injection): 0.95
time after injection at which whole blood versus plasma ratio became constant ([6]; in vivo): about 10 minutes
time the whole blood versus plasma ratio remained constant (duration of measurement) ([6]; in vivo): 120 min
agreement of venous and arterial samples ([6]; samples obtained at least 10 minutes after injection): good agreement
